Data taken from US11419918B2, “Treatment of biliary cirrhosis based on oxyntomodulin analogue GLP-1R/GCGR dual-target agonist peptide” (Shenzhen Turier Biotech Co., Ltd., priority 2017, dated 2022).
Numbered stars: 1 amine (or outer) side, 2 acyl side, 3 side chain; on linkers, the order of the positions; unused ones are H or OH. Square brackets hold non-standard residues; d marks the D form. Primed or numbered codes have the meaning given here. Side chains are listed from the residue outwards. Ends that are not written are not given here. * marks the point of attachment. C18 diacid = O=C(O)CCCCCCCCCCCCCCCCC(=O)*; γGlu = O=C(O)[C@H](CCC(=O)[*:2])N[*:1]; Stearoyl = CCCCCCCCCCCCCCCCCC(=O)*; Palmitoyl = CCCCCCCCCCCCCCCC(=O)*; Nle = CCCC[C@H](N)C(=O)O; PEG2′ = not defined here

System: human hepatic stellate cells (LX-2)
Assay: In vitro inhibition of hepatic fibrosis: expression of activation marker α-SMA in LX-2 cells (Western Blot, β-actin internal reference)
Assay type: cell-based
Conditions: 10.0 μM, 48 hours, negative control (PBS) = 100%
Experimental: Hepatic stellate cell strain LX-2 was selected to study and observe the effect of different doses of test substances on the expression of LX-2 cell activation marker α-SMA. Hepatic stellate cell LX-2 was laid on 35 mm cell culture plate, cultured with DMEM (high glucose)+10% FBS+1% double-antibody culture medium (Thermo Fisher), placed overnight when the cells grew to 70% convergence at 37° C. and under the condition of 5% CO2, and treated with the above GLP-1R/GCGR dual target agonist polypeptides 1-48 (dissolved in PBS) for 48 hours the next day morning to extract cell protein, carry out Western Blot, and take β-actin as internal reference and analyze the expression quantities of α-SMA and β-actin by a gray level of Image J 1.50i. PBS with the same volume as that in experimental group was added in negative control. […] The integrating gray level of α-SMA/β-actin in the negative control group was 100% to analyze the in vitro inhibition activity of hepatic fibrosis of tested polypeptide.

Going from “His-(D-Ser)-Gln-Gly-Thr-Phe-Thr-Ser-Asp-Tyr-Ser-Lys-Tyr-Leu-Asp-Glu-Lys-Ala-Ala-Lys(PEG2-PEG2-γGlu-CO(CH2)16CO2H)-Glu-Phe-Ile-Glu-Trp-Leu-Leu-Asn-Gly-Gly-Pro-Ser-Ser-Gly-Ala-Pro-Pro-Pro-Ser-NH2 (H[dS]QGTFTSDYSKYLDEKAAK([PEG2′-PEG2′-γGlu-C18 diacid])EFIEWLLNGGPSSGAPPPS-NH2) [Compound 26]” to “His-(D-Ser)-Gln-Gly-Thr-Phe-Thr-Ser-Asp-Tyr-Ser-Lys-Tyr-Leu-Asp-Lys(PEG2-PEG2-CO(CH2)14CH3)-Arg-Arg-Ala-Gln-Asp-Phe-Val-Gln-Trp-Leu-Leu-Asn-Thr-Gly-Gly-Pro-Ser-Ser-Gly-Ala-Pro-Pro-Pro-Ser-NH2 (H[dS]QGTFTSDYSKYLDK([PEG2′-PEG2′-Palmitoyl])RRAQDFVQWLLNTGGPSSGAPPPS-NH2) [Compound 42]”, the “Relative expression of α-SMA (α-SMA/β-actin, %)” value falls from 44.44% to 38.11%.

First: His-(D-Ser)-Gln-Gly-Thr-Phe-Thr-Ser-Asp-Tyr-Ser-Lys-Tyr-Leu-Asp-Lys(PEG2-PEG2-CO(CH2)16CO2H)-Arg-Arg-Ala-Gla-Asp-Phe-Val-Gln-Trp-Leu-Met-Asn-Thr-Gly-Gly-Pro-Ser-Ser-Gly-Ala-Pro-Pro-Pro-Ser-NH2 (H[dS]QGTFTSDYSKYLDK([PEG2′-PEG2′-C18 diacid])RRAQDFVQWLMNTGGPSSGAPPPS-NH2; also: position 20: name writes Gla, letters give Q) [Compound 35]
Second: His-(D-Ser)-Gln-Gly-Thr-Phe-Thr-Ser-Asp-Tyr-Ser-Lys-Tyr-Leu-Asp-Lys(PEG2-PEG2-CO(CH2)16CO2H)-Arg-Arg-Ala-Gln-Asp-Phe-Val-Gln-Trp-Leu-Nle-Asn-Thr-Gly-Gly-Pro-Ser-Ser-Gly-Ala-Pro-Pro-Pro-Ser-NH2 (H[dS]QGTFTSDYSKYLDK([PEG2′-PEG2′-C18 diacid])RRAQDFVQWL[Nle]NTGGPSSGAPPPS-NH2) [Compound 41]
The “Relative expression of α-SMA (α-SMA/β-actin, %)” value of the first is higher: 51.28% for the first, 42.10% for the second.

First: His-(D-Ser)-Gln-Gly-Thr-Phe-Thr-Ser-Asp-Tyr-Ser-Lys-Tyr-Leu-Asp-Lys(PEG2-PEG2-γGlu-CO(CH2)16CH3)-Arg-Arg-Ala-Gln-Asp-Phe-Val-Gln-Trp-Leu-Met-Asn-Thr-Gly-Gly-Pro-Ser-Ser-Gly-Ala-Pro-Pro-Pro-Ser-NH2 (H[dS]QGTFTSDYSKYLDK([PEG2′-PEG2′-γGlu-Stearoyl])RRAQDFVQWLMNTGGPSSGAPPPS-NH2) [Compound 36]
Second: His-(D-Ser)-Gln-Gly-Thr-Phe-Thr-Ser-Asp-Tyr-Ser-Lys-Tyr-Leu-Asp-Lys(PEG2-PEG2-γGlu-CO(CH2)16CO2H)-Arg-Arg-Ala-Gln-Asp-Phe-Val-Gln-Trp-Leu-Met-Asn-Thr-Gly-Gly-Pro-Ser-Ser-Gly-Ala-Pro-Pro-Pro-Ser-NH2 (H[dS]QGTFTSDYSKYLDK([PEG2′-PEG2′-γGlu-C18 diacid])RRAQDFVQWLMNTGGPSSGAPPPS-NH2) [Compound 34]
The “Relative expression of α-SMA (α-SMA/β-actin, %)” value of the first is higher: 42.49% for the first, 38.18% for the second.

First: His-(D-Ser)-Gln-Gly-Thr-Phe-Thr-Ser-Asp-Tyr-Ser-Lys-Tyr-Leu-Asp-Ser-Lys(PEG2-PEG2-γGlu-CO(CH2)16CH3)-Ala-Ala-His-Asp-Phe-Val-Glu-Trp-Leu-Leu-Arg-Ala-NH2 (H[dS]QGTFTSDYSKYLDSK([PEG2′-PEG2′-γGlu-Stearoyl])AAHDFVEWLLRA-NH2) [Compound 25]
Second: His-(D-Ser)-Gln-Gly-Thr-Phe-Thr-Ser-Asp-Tyr-Ser-Lys-Tyr-Leu-Asp-Ser-Lys(PEG2-PEG2-γGlu-CO(CH2)16CH3)-Ala-Ala-His-Asp-Phe-Val-Glu-Trp-Leu-Leu-Asn-Gly-Gly-Pro-Ser-Ser-Gly-Aln-Pro-Pro-Pro-Ser-NH2 (H[dS]QGTFTSDYSKYLDSK([PEG2′-PEG2′-γGlu-Stearoyl])AAHDFVEWLLNGGPSSGAPPPS-NH2; also: position 35: name writes Aln, letters give A) [Compound 22]
The “Relative expression of α-SMA (α-SMA/β-actin, %)” value of the first is higher: 53.34% for the first, 40.56% for the second.
